Values of other authors as cited in article PMC7330163 (Pharmacology Research & Perspectives, 2020).

Legend:
[1] = test system: hepatic OATP transporters; conditions: accumulates in the liver; cited from earlier work
CYP3A4 = conditions: man; cited from earlier work

SMILES: COc1ccccc1Oc1c(NS(=O)(=O)c2ccc(C(C)(C)C)cc2)nc(-c2ncccn2)nc1OCCO [bosentan]
- substrate of OATP [1]: is an OATP substrate
- CYP3A4 induction in clinical use (CYP3A4): moderate CYP3A4 inducer
